Measurements published in article PMC12463120, “Phenylalanine‐Based DNA‐Encoded Chemical Libraries for the Discovery of Potent and Selective Small Organic Ligands Against Markers of Cancer and Immune Cells” (Advanced Science, 2025).

System: various unrelated proteins, including TAAs and serological proteins
Test: ELISA against multiple proteins (specificity)
Assay type: binding
Method: 2.13 ACP3 colorimetric enzymatic assay
Grenier 384 transparent, flat-bottom well plates were used. Each test compound was measured in triplicate. 16 µL of a solution of the compound (3µM, 5% DMSO in PBS for small molecules or PBS only for DNA-conjugates, pH 7.4) was loaded into the first well row. A serial 1:2 (on DNA) or 1:3 (off DNA) dilution in DMSO/PBS (5/95, off DNA) or only PBS (on DNA) was performed in a total volume per well of 8 µL. Human recombinant ACP3 (16 µL solution, 2.5 nM in PBS, pH 7.4) was added to each well.
After 10 min of incubation, 16 µL of a solution of para-nitrophenyl phosphate (pNPP, substrate, 5 mM in PBS, pH 7.4) was added. The plate was left to develop in the dark for 16 hours. Enzymatic reaction on the substrate (phosphate group removal by ACP3) was assessed by measuring absorption at 405 vs 620 nm on a Spectra Max Paradigm multimode plate reader ([…]).
2.14 Surface plasmon resonance (SPR)
SPR measurements were performed on a Biacore X100. […]
The protein (100 μL/well, 170 nM) was incubated for 2 h at 4 °C on a StreptaWell plate (transparent 96 - well plate, Roche #11645692001). […] The absorbance was measured at 450 nm (reference level, 620–650 nm) with a Spark multimode microplate reader (Tecan Life Sciences). […]

CC(C)Oc1ccc(-c2cccc(C[C@H](NC(=O)c3ccccc3-c3ccc(C(F)(F)F)cc3)C(=O)N[C@@H](CCCCNC(=S)Nc3ccc4c(c3)C(=O)OC43c4ccc(O)cc4Oc4cc(O)ccc43)C(=O)O)c2)c(F)c1 [compound 30]
selectivity by ELISA against multiple proteins: high selectivity over various unrelated proteins
